{"source": "patent US10280149B2", "about": "“Therapeutic compounds and uses thereof” (GENENTECH, INC., priority 2015, dated 2019)", "note": "Structures can show the parent of a compound that is named as a salt.", "data": [{"biological_target": "Full length KDM2B (Homo sapiens (Human), UniProt Q8NHM5)", "sequence (Q8NHM5 whole entry)": "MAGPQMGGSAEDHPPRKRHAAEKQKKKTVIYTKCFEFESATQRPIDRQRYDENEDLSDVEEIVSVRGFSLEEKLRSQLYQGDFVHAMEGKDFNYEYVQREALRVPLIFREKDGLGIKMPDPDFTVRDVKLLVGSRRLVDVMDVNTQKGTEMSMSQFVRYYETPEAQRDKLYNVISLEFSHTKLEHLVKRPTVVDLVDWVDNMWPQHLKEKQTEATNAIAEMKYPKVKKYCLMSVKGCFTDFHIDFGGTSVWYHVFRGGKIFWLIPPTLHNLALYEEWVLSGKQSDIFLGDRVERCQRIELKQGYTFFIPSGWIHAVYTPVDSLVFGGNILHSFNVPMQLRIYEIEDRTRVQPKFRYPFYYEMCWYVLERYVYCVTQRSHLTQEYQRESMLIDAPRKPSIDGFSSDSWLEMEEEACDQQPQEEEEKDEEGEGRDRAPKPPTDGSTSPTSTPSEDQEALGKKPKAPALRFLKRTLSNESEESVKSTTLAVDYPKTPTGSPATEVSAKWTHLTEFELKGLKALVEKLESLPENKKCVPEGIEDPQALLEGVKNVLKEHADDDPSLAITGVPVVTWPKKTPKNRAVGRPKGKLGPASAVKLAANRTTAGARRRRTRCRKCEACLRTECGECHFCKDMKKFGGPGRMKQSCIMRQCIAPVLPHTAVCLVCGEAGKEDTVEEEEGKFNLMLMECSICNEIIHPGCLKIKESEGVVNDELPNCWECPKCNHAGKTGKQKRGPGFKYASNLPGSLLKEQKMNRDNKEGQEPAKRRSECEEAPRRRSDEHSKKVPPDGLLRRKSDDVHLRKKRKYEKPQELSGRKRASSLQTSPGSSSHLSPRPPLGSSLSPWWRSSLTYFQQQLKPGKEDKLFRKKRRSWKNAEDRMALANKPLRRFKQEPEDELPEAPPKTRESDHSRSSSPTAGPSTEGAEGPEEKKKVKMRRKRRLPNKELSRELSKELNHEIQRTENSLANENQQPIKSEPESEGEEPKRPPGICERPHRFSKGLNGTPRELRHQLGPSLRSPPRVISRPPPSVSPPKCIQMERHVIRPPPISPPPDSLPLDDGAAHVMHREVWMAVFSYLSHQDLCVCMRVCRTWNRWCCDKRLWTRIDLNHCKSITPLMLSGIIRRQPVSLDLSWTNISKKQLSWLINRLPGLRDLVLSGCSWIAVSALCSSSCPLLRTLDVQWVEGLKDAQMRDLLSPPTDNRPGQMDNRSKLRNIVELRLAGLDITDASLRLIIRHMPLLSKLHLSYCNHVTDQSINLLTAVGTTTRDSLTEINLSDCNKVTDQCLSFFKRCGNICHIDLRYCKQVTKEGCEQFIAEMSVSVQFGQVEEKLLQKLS", "experiment": "KDM2B TR-FRET assay for determining inhibitor IC50", "type": "biochemical", "conditions": "TR-FRET (HTRF), biotin-H3K36me2 peptide substrate, 2-OG 0.3 μM or 6 μM", "description": "KDM2B TR-FRET Assay for Determining Inhibitor IC50\nThe KDM2B TR-FRET Assay described above represents an additional embodiment of the invention.", "units": {"IC50": "nM"}, "values": [{"molecule": "O=C(c1ccc2c(OCc3ccccc3)cccc2c1)C1CCCN(CC2CC2)C1", "note": "(centres unmarked) [Example 123, (5-(benzyloxy)naphthalen-2-yl)(1-(cyclopropylmethyl)piperidin-3-yl)methanone]", "IC50": 90.9}, {"molecule": "O=C(c1cnn(-c2ccccc2)c1)C1CCCN(CC2CC2)C1", "note": "(centres unmarked) [Example 124, (1-(cyclopropylmethyl)piperidin-3-yl)(1-phenyl-1H-pyrazol-4-yl)methanone]", "IC50": 656}, {"molecule": "O=C(c1cnc2ccccc2c1)C1CCCN(CC2CC2)C1", "note": "(centres unmarked) [Example 125, (1-(cyclopropylmethyl)piperidin-3-yl)(quinolin-3-yl)methanone]", "IC50": 489}, {"molecule": "O=C(c1cccc2ccccc12)C1CCCN(CC2CC2)C1", "note": "(centres unmarked) [Example 126, (1-(cyclopropylmethyl)piperidin-3-yl)(naphthalen-1-yl)methanone]", "IC50": 3800}, {"molecule": "O=C(c1ccc(F)c2ccccc12)C1CCCN(CC2CC2)C1", "note": "(centres unmarked) [Example 127, (1-(cyclopropylmethyl)piperidin-3-yl)(4-fluoronaphthalen-1-yl)methanone hydrochloride]", "IC50": 1900}, {"molecule": "O=C(c1ccc2ccccc2c1F)C1CCCN(CC2CC2)C1", "note": "(centres unmarked) [Example 128, (1-(cyclopropylmethyl)piperidin-3-yl)(1-fluoronaphthalen-2-yl)methanone]", "IC50": 133}, {"molecule": "Cc1noc2cc(C(=O)C3CCCN(CC4CC4)C3)ccc12", "note": "(centres unmarked) [Example 129, (1-(cyclopropylmethyl)piperidin-3-yl)(3-methylbenzo[d]isoxazol-6-yl)methanone]", "IC50": 492}, {"molecule": "Cn1c(=O)n(C)c2cc(C(=O)C3CCCN(CC4CC4)C3)ccc21", "note": "(centres unmarked) [Example 130, 5-(1-(cyclopropylmethyl)piperidine-3-carbonyl)-1,3-dimethyl-1H-benzo[d]imidazol-2-one]", "IC50": 442}, {"molecule": "O=C(c1ccc2c(c1)CCCCC2)C1CCCN(C2CCC2)C1", "note": "(centres unmarked) [Example 132, (1-cyclobutylpiperidin-3-yl)(6,7,8,9-tetrahydro-5H-benzo[7]annulen-2-yl)methanoe]", "IC50": 55.3}, {"molecule": "O=C(c1ccc2c(c1)CCCC2)C1CCCN(C2CCC2)C1", "note": "(centres unmarked) [Example 133, (1-cyclobutyl-3-piperidyl)-tetralin-6-yl-methanone]", "IC50": 103}, {"molecule": "O=C(c1ccc2cnccc2c1)C1CCCN(C2CCC2)C1", "note": "(centres unmarked) [Example 135]", "IC50": 226}, {"molecule": "COc1ccc2cc(C(=O)C3CN(CC4CC4)CCC3c3ccccc3)ccc2c1", "note": "(centres unmarked) [Example 145, (1-(cyclopropylmethyl)-4-phenylpiperidin-3-yl)(6-methoxynaphthalen-2-yl)methanone]", "IC50": 312}, {"molecule": "CS(=O)(=O)N1CCc2cc(C(=O)C3CCCN(C4CCC4)C3)ccc2C1", "note": "(centres unmarked) [Example 149, (1-cyclobutylpiperidin-3-yl)(2-(methylsulfonyl)-1,2,3,4-tetrahydroisoquinolin-6-yl)methanone]", "IC50": 163}, {"molecule": "O=C(c1ccc2c(O)cccc2c1)C1CCCN(CC2CC2)C1", "note": "(centres unmarked) [Example 150, (1-(cyclopropylmethyl)piperidin-3-yl)(5-hydroxynaphthalen-2-yl)methanone]", "IC50": 133}, {"molecule": "O=C(c1ccc2cc(CO)ccc2c1)C1CCCN(CC2CC2)C1", "note": "(centres unmarked) [Example 152, (1-(cyclopropylmethyl)piperidin-3-yl)(6-(hydroxymethyl)naphthalen-2-yl)methanone]", "IC50": 234}, {"molecule": "O=C(c1ccc2cc(CO)ccc2c1)C1CCCN(C2CCC2)C1", "note": "(centres unmarked) [Example 153, (1-cyclobutylpiperidin-3-yl)(6-(hydroxymethyl)naphthalen-2-yl)methanone]", "IC50": 409}, {"molecule": "O=C(c1ccc2cc(CO)ccc2c1)C1CCCN(C2CCCC2)C1", "note": "(centres unmarked) [Example 154, (1-cyclopentylpiperidin-3-yl)(6-(hydroxymethyl)naphthalen-2-yl)methanone]", "IC50": 183}, {"molecule": "COc1ccc2cc(C(=O)C3CC(O)CN(CC4CC4)C3)ccc2c1", "note": "(centres unmarked) [Example 155, (1-(cyclopropylmethyl)-5-hydroxypiperidin-3-yl)(6-methoxynaphthalen-2-yl)methanone]", "IC50": 779}, {"molecule": "N#Cc1ccc2cc(C(=O)C3CCCN(CC4CC4)C3)ccc2c1", "note": "(centres unmarked) [Example 159, 6-(1-(cyclopropylmethyl)piperidine-3-carbonyl)-2-naphthonitrile]", "IC50": 68.8}, {"molecule": "CC1CCN(C2CCCC2)CC1C(=O)c1ccc2cc(C#N)ccc2c1", "note": "(centres unmarked) [Example 162a, 6-(1-cyclopentyl-4-methylpiperidine-3-carbonyl)-2-naphthonitrile]", "IC50": 814}, {"molecule": "CC1CC1CN1CCCC(C(=O)c2ccc3cc(C#N)ccc3c2)C1", "note": "(centres unmarked) [Example 164, 6-(1-((2-methylcyclopropyl)methyl)piperidine-3-carbonyl)-2-naphthonitrile]", "IC50": 436}, {"molecule": "Cc1ccc2cc(C(=O)C3CCCN(C4CCC4)C3)ccc2c1", "note": "(centres unmarked) [Example 165, (1-cyclobutylpiperidin-3-yl)(6-methylnaphthalen-2-yl)methanone hydrochloride]", "IC50": 163}, {"molecule": "Cc1ccc2cc(C(=O)C3CCCN(C4CCCC4)C3)ccc2c1", "note": "(centres unmarked) [Example 166, (1-cyclopentylpiperidin-3-yl)(6-methylnaphthalen-2-yl)methanone]", "IC50": 240}, {"molecule": "CS(=O)(=O)c1ccc2cc(C(=O)C3CCCN(CC4CC4)C3)ccc2c1", "note": "(centres unmarked) [Example 169, (1-(cyclopropylmethyl)piperidin-3-yl)(6-(methylsulfonyl)naphthalen-2-yl)methanone]", "IC50": 112}, {"molecule": "CS(=O)(=O)c1ccc2cc(C(=O)C3CCCN(C4CCC4)C3)ccc2c1", "note": "(centres unmarked) [Example 170, (1-cyclobutylpiperidin-3-yl)(6-(methylsulfonyl)naphthalen-2-yl)methanone]", "IC50": 42.6}, {"molecule": "CS(=O)(=O)c1ccc2cc(C(=O)C3CCCN(C4CCCC4)C3)ccc2c1", "note": "(centres unmarked) [Example 171, (1-cyclopentylpiperidin-3-yl)(6-(methylsulfonyl)naphthalen-2-yl)methanone]", "IC50": 102}, {"molecule": "Cc1ccc2cc(C(=O)C3CCCN(CC4CC4)C3)ccc2n1", "note": "(centres unmarked) [Example 173]", "IC50": 255}, {"molecule": "O=C(Nc1ccc2cc(C(=O)C3CCCN(CC4CC4)C3)ccc2c1)C1CC1", "note": "(centres unmarked) [Example 175]", "IC50": 355}, {"molecule": "CN(C)C(=O)c1ccc2cc(C(=O)C3CCCN(CC4CC4)C3)ccc2c1", "note": "(centres unmarked) [Example 176, 6-(1-(cyclopropylmethyl)piperidine-3-carbonyl)-N,N-dimethyl-2-naphthamide]", "IC50": 214}, {"molecule": "CN(C)C(=O)c1ccc2cc(C(=O)C3CCCN(C4CCC4)C3)ccc2c1", "note": "(centres unmarked) [Example 177, 6-(1-cyclobutylpiperidine-3-carbonyl)-N,N-dimethyl-2-naphthamide]", "IC50": 113}, {"molecule": "CN(C)C(=O)c1ccc2cc(C(=O)C3CCCN(C4CCCC4)C3)ccc2c1", "note": "(centres unmarked) [Example 178]", "IC50": 188}, {"molecule": "COc1ccc2cc(C(=O)C3CCCN(CC4CC4)C3)ccc2c1CO", "note": "(centres unmarked) [Example 188, (1-(cyclopropylmethyl)piperidin-3-yl)(5-(hydroxymethyl)-6-methoxynaphthalen-2-yl)methanone hydrochloride]", "IC50": 133}, {"molecule": "COc1ccc2cc(C(=O)C3CCCN(C4CCC4)C3)ccc2c1CO", "note": "(centres unmarked) [Example 189, (1-cyclobutylpiperidin-3-yl)(5-(hydroxymethyl)-6-methoxynaphthalen-2-yl)methanone hydrochloride]", "IC50": 55.3}, {"molecule": "CCN1CCN(C2CCC2)CC1C(=O)c1ccc2cc(OC)ccc2c1", "note": "(centres unmarked) [Example 190]", "IC50": 979}, {"molecule": "COc1ccc2cc(C(=O)C3CN(C4CCC4)CCN3Cc3ccccc3)ccc2c1", "note": "(centres unmarked) [Example 191, (1-benzyl-4-cyclobutyl-piperazin-2-yl)-(6-methoxy-2-naphthyl)methanone]", "IC50": 102}, {"molecule": "COc1ccc2cc(C(=O)C3CN(C4CCC4)CCN3CC3CC3)ccc2c1", "note": "(centres unmarked) [Example 192, [4-cyclobutyl-1-(cyclopropylmethyl)piperazin-2-yl]-(6-methoxy-2-naphthyl)methanone]", "IC50": 385}, {"molecule": "COc1ccc2cc(C(=O)C3CN(C4CCC4)CCN3Cc3cccc(C#N)c3)ccc2c1", "note": "(centres unmarked) [Example 193, 3-[[4-cyclobutyl-2-(6-methoxynaphthalene-2-carbonyl)piperazin-1-yl]methyl]benzonitrile]", "IC50": 22.3}, {"molecule": "COc1ccc2cc(C(=O)C3CN(C4CCC4)CCN3C)ccc2c1", "note": "(centres unmarked) [Example 194, (4-cyclobutyl-1-methyl-piperazin-2-yl)-(6-methoxy-2-naphthyl)methanone]", "IC50": 1700}, {"molecule": "COc1ccc2cc(C(=O)C3CN(C4CCC4)CCN3Cc3ccccc3C#N)ccc2c1", "note": "(centres unmarked) [Example 195, 2-[[4-cyclobutyl-2-(6-methoxynaphthalene-2-carbonyl)piperazin-1-yl]methyl]benzonitrile]", "IC50": 176}, {"molecule": "COc1ccc2cc(C(=O)C3CN(C4CCC4)CCN3Cc3ccc(C)cc3)ccc2c1", "note": "(centres unmarked) [Example 196, [4-cyclobutyl-1-(p-tolylmethyl)piperazin-2-yl]-(6-methoxy-2-naphthyl)methanone]", "IC50": 138}, {"molecule": "COc1ccc2cc(C(=O)C3CN(C4CCC4)CCN3Cc3ccc4ccccc4c3)ccc2c1", "note": "(centres unmarked) [Example 197, [4-cyclobutyl-1-(2-naphthylmethyl)piperazin-2-yl]-(6-methoxy-2-naphthyl)methanone]", "IC50": 165}, {"molecule": "COc1ccc2cc(C(=O)C3CN(C4CCC4)CCN3Cc3cccc(C(F)(F)F)c3)ccc2c1", "note": "(centres unmarked) [Example 198, [4-cyclobutyl-1-[[3-(trifluoromethyl)phenyl]methyl]piperazin-2-yl]-(6-methoxy-2-naphthyl)methanone]", "IC50": 302}, {"molecule": "COc1ccc2cc(C(=O)C3CN(C4CCC4)CCN3Cc3ccc(C#N)cc3)ccc2c1", "note": "(centres unmarked) [Example 199, 4-[[4-cyclobutyl-2-(6-methoxynaphthalene-2-carbonyl)piperazin-1-yl]methyl]benzonitrile]", "IC50": 30.9}, {"molecule": "(1-(cyclopropylmethyl)-4-methylpiperidin-3-yl)(6-methoxynaphthalen-2-yl)methanone [Example 137a]", "IC50": 70.6}]}]}
